This assay has as its target T1, Phosducin-like protein 3 (Homo sapiens, UniProt Q9H2J4).
T1 sequence (Q9H2J4 whole entry): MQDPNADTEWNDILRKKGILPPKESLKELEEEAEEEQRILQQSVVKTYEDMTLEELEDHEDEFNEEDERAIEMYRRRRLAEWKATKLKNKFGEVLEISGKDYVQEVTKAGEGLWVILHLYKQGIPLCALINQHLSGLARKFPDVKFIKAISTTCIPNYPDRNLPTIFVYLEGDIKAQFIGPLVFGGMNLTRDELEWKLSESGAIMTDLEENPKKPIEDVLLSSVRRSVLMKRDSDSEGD
The assay can be described thus: NMR Screening Assay. Conditions: pH 7.5; 27 °C. The text has this:
NMR-based screen of potential binders by using 1D Aliphatic 1H NMR experiment to investigate the potential role of the c-VIAF as a possible drug target viral infections validation and functional studies.

Compound `CCOC(=O)Cn1cnc2sc3c(c2c1=O)CCC3` [2-(1-keto-7,8-dihydro-6H-cyclopenta[2,3]thieno[2,4-d]pyrimidin-2-yl)acetic acid ethyl ester] gave a Kd of 227 µM.
Then `CCOC(=O)Cn1cnc2sc3c(c2c1=O)CCCC3` [BI-86-E6], with 16.5 µM; and `CCOC(=O)C(CC)n1cnc2sc3c(c2c1=O)CCCC3` (configuration not stated) [BI-86-E8], with over 1000 µM; and `CC(C)COC(=O)Cn1cnc2sc3c(c2c1=O)CCCC3` [BI-86-E11], with over 1000 µM.
In the case of `CCOC(=O)C(C)n1cnc2sc3c(c2c1=O)CCCC3` (configuration not stated) [BI-86-E12], the Kd is 76 µM.
With `O=C(Cn1cnc2sc3c(c2c1=O)CCCC3)OCc1ccccc1` [BI-86-F2], the Kd was over 1000 µM.
Then `O=c1[nH]nnc2sc3c(c12)CCCC3` [BI-86-F3], with over 1000 µM.

A word on the Kd: it is the equilibrium constant for the complex coming apart. A lower Kd goes with tighter binding.

The values above are taken from BindingDB's records for doi:10.1111/j.1747-0285.2008.00719.x (The Burnham Institute For Medical Research, 2008).
